In patent publication US20150031102A1, “METHODS AND COMPOSITIONS FOR ENHANCED PRODUCTION OF BUTANOL BY CLOSTRIDIA” (Butrolix LLC, priority 2012, published 2015):
Marks after values point to notes of the source that are not given here.

Test system: C. acetobutylicum
Assay: Continuous culture, 2.5 L, dilution rate 0.01 per hour, 20 days (butanol, residual glucose, optical density, pH, yield, productivity)
Format: cell-based, Clostridium acetobutylicum
Conditions: for Optical density (600 nm): 50 nM BP110517 and its control; for Productivity / Yield / Butanol: 50 nM peptide, Table 53; for Butanol: average ± SD of triplicate samples; for Average Butanol / Average Glucose: Treated (50 nM)
Description: Lastly, 2.5 L continuous culture studies were conducted using the optimum peptide treatment level that was determined by the sequential batch transfer experiments. An untreated and a peptide-treated culture were grown in parallel, identical vessels with identical dilution rates for 20 days. The continuous cultures were initiated by inoculating 2.25 L of sterile medium in each culture vessel using 250 mL of peptide-treated and untreated batch cultures that had been grown for 24 hours. The batch cultures used as inoculum were the third of sequential batch transfer cultures, which made inoculation of the continuous cultures the fourth sequential transfer. After inoculation, the continuous cultures were grown for 24 hours before beginning to feed fresh medium at a rate of 0.01 volumes per hour. Triplicate samples were taken from each continuous culture every 24 hours. Optical density of the replicates was measured and culture supernatants were recovered following centrifugation and analyzed later for butanol and residual glucose concentrations. The analyses were used to calculate yield and productivity of the cultures.
Clostridium acetobutylicum strain ATCC 824 was used in all experiments and the growth medium used for sequential batch transfer, time course, and continuous culture experiments contained yeast extract, casamino acids, L-cysteine, L-asparagine, phosphate buffer, trace minerals, and 6% glucose. What are believed to be quorum-sensing peptides that were used in the experiments were chemically synthesized peptides SEQ ID NO: 143 (amino acid sequence: SYPGWSW) and SEQ ID NO: 144 (amino acid sequence: ILILISG). Routine growth of the bacteria as well as the sequential batch and time course experiments were conducted in a Form a Scientific Model 1029 anaerobic gas chamber at 32° C. Continuous cultures were performed at 32° C. using duplicate New Brunswick Scientific BioFlo 3000 apparati with a dilution rate of 0.01 volume per hour, 75 rpm agitation, and nitrogen gas sparging. Optical density of culture samples was measured at 600 nm in a Beckman DU 600 series spectrophotometer and glucose was analyzed using a YSI Model 2700 Select Biochemistry Analyzer with internal glucose calibration. Butanol concentrations were determined by measuring experimental and standard samples using a Varian Saturn 3 Gas Chromatograph/Mass Spectrometer and calculating butanol concentrations using standard curves.
Data from continuous cultures using a 6% glucose medium in vessels with a working volume of 2.5 L run at a dilution rate of 0.01 per hour. Two vessels were run in parallel, one of which was treated with 50 nM of peptide SEQ ID NO: 143 and the other was untreated. The vessels were sparged continuously with nitrogen gas to maintain anaerobic conditions and were agitated at 75 rpm. On Day 0, the vessels were inoculated with a 1/10 volume (250 mL) of overnight cultures that were either treated with peptide or untreated, and that were the third transfer of the cultures, which made inoculation of the continuous cultures the fourth transfer. Triplicate samples were collected aseptically from each vessel immediately after inoculation and every 24 hours thereafter. The cultures were allowed to grow for 24 hours prior to beginning to feed fresh medium, and were maintained for 20 days each, without pH control. The optical density of each sample was measured immediately at 600 nm, the samples were centrifuged to remove cells, and the cell-free supernatants were frozen for later analysis. A representative experiment is shown in FIG. 19 and Tables 34 and 35.
Using the optimum peptide treatment level that was determined by the sequential batch transfer experiments, 2.5 L continuous culture studies were conducted. An untreated and a peptide-treated culture were grown in parallel, identical vessels using the same dilution rates for 20 days for each of the peptides BP110517 and BP1106213. […]

[1] = 50 nM BP110517, last five days of culture
[2] = 24 hour period preceding day 10
[3] = 24 hour period preceding day 11
[4] = 24 hour period preceding day 12
[5] = 24 hour period preceding day 13
[6] = 24 hour period preceding day 14
[7] = 24 hour period preceding day 15
[8] = 24 hour period preceding day 16
[9] = 24 hour period preceding day 17
[10] = 24 hour period preceding day 18
[11] = 24 hour period preceding day 19
[12] = 24 hour period preceding day 20

Question: Which “Butanol content compared with the control” value (50 nM BP110517, between days 5 and 9) does the source give for SYPGWSW [peptide SEQ ID NO: 143] here?
Answer: significantly more butanol than the control

Question: And the “Butanol content compared with the control” value [1]?
Answer: significantly greater than the control

Question: What about the “Butanol level lower than earlier in the culture period” value [1] of the same substance?
Answer: roughly 75%

Question: What about the “Optical density (600 nm)” value (after day 13, recovered after day 17) of the same substance?
Answer: less than 0.500

Question: And the “Optical density (600 nm)” value (first 9 days)?
Answer: around 2.0

Question: And the Productivity (24 hour period preceding day 1)?
Answer: 0.53 g Butanol/L-h

Question: What about the Yield (24 hour period preceding day 1) of the same substance?
Answer: 0.19 g Butanol/g Glucose

Question: And the Productivity (24 hour period preceding day 2)?
Answer: −0.17 g Butanol/L-h

Question: What about the Yield (24 hour period preceding day 2) of the same substance?
Answer: −0.28 g Butanol/g Glucose

Question: And the Productivity (24 hour period preceding day 3)?
Answer: 0.07 g Butanol/L-h

Question: What about the Yield (24 hour period preceding day 3) of the same substance?
Answer: 0.11 g Butanol/g Glucose

Question: And the Productivity (24 hour period preceding day 4)?
Answer: 0.29 g Butanol/L-h

Question: And the Yield (24 hour period preceding day 4)?
Answer: 0.46 g Butanol/g Glucose

Question: What about the Productivity (24 hour period preceding day 5) of the same substance?
Answer: 0.24 g Butanol/L-h

Question: And the Yield (24 hour period preceding day 5)?
Answer: 0.39 g Butanol/g Glucose

Question: What about the Productivity (24 hour period preceding day 6) of the same substance?
Answer: 0.07 g Butanol/L-h

Question: What about the Yield (24 hour period preceding day 6) of the same substance?
Answer: 0.11 g Butanol/g Glucose

Question: What about the Productivity (24 hour period preceding day 7) of the same substance?
Answer: 0.14 g Butanol/L-h

Question: And the Yield (24 hour period preceding day 7)?
Answer: 0.23 g Butanol/g Glucose

Question: And the Productivity (24 hour period preceding day 8)?
Answer: 0.06 g Butanol/L-h

Question: What about the Yield (24 hour period preceding day 8) of the same substance?
Answer: 0.10 g Butanol/g Glucose

Question: What about the Productivity (24 hour period preceding day 9) of the same substance?
Answer: 0.07 g Butanol/L-h

Question: What about the Yield (24 hour period preceding day 9) of the same substance?
Answer: 0.11 g Butanol/g Glucose

Question: What about the Productivity [2] of the same substance?
Answer: 0.00 g Butanol/L-h

Question: And the Yield [2]?
Answer: 0.01 g Butanol/g Glucose

Question: And the Productivity [3]?
Answer: 0.20 g Butanol/L-h

Question: What about the Yield [3] of the same substance?
Answer: 0.33 g Butanol/g Glucose

Question: And the Productivity [4]?
Answer: 0.02 g Butanol/L-h

Question: And the Yield [4]?
Answer: 0.04 g Butanol/g Glucose

Question: What about the Productivity [5] of the same substance?
Answer: −0.11 g Butanol/L-h

Question: And the Yield [5]?
Answer: −0.18 g Butanol/g Glucose

Question: What about the Productivity [6] of the same substance?
Answer: 0.00 g Butanol/L-h

Question: What about the Yield [6] of the same substance?
Answer: 0.00 g Butanol/g Glucose

Question: What about the Productivity [7] of the same substance?
Answer: 0.03 g Butanol/L-h

Question: And the Yield [7]?
Answer: 0.05 g Butanol/g Glucose

Question: And the Productivity [8]?
Answer: 0.11 g Butanol/L-h

Question: And the Yield [8]?
Answer: 0.17 g Butanol/g Glucose

Question: And the Productivity [9]?
Answer: −0.01 g Butanol/L-h

Question: And the Yield [9]?
Answer: −0.02 g Butanol/g Glucose

Question: And the Productivity [10]?
Answer: 0.01 g Butanol/L-h

Question: What about the Yield [10] of the same substance?
Answer: 0.01 g Butanol/g Glucose

Question: And the Productivity [11]?
Answer: 0.06 g Butanol/L-h

Question: What about the Yield [11] of the same substance?
Answer: 0.09 g Butanol/g Glucose

Question: And the Productivity [12]?
Answer: 0.01 g Butanol/L-h

Question: What about the Yield [12] of the same substance?
Answer: 0.01 g Butanol/g Glucose

Question: And the Butanol (day 0)?
Answer: 0.9 ± 0.0 g/L

Question: What about the Butanol (day 1) of the same substance?
Answer: 12.8 ± 4.4 g/L

Question: What about the Butanol (day 2) of the same substance?
Answer: 5.5 ± 0.7 g/L

Question: And the Butanol (day 3)?
Answer: 5.8 ± 1.7 g/L

Question: And the Butanol (day 4)?
Answer: 11.2 ± 5.3 g/L

Question: What about the Butanol (day 5) of the same substance?
Answer: 14.2 ± 0.3^c g/L

Question: What about the Butanol (day 6) of the same substance?
Answer: 12.3 ± 0.6^c g/L

Question: And the Butanol (day 7)?
Answer: 12.6 ± 0.0^c g/L

Question: What about the Butanol (day 8) of the same substance?
Answer: 11.0 ± 0.4 g/L

Question: And the Butanol (day 9)?
Answer: 9.9 ± 0.3^c g/L

Question: What about the Butanol (day 10) of the same substance?
Answer: 7.6 ± 0.3 g/L

Question: What about the Butanol (day 11) of the same substance?
Answer: 10.6 ± 0.7 g/L

Question: What about the Butanol (day 12) of the same substance?
Answer: 8.5 ± 2.8 g/L

Question: And the Butanol (day 13)?
Answer: 3.6 ± 0.2 g/L

Question: What about the Butanol (day 14) of the same substance?
Answer: 2.7 ± 0.4 g/L

Question: And the Butanol (day 15)?
Answer: 2.8 ± 0.6 g/L

Question: And the Butanol (day 16)?
Answer: 4.7 ± 0.1^c g/L

Question: What about the Butanol (day 17) of the same substance?
Answer: 3.3 ± 0.2^c g/L

Question: What about the Butanol (day 18) of the same substance?
Answer: 2.7 ± 0.0^c g/L

Question: What about the Butanol (day 19) of the same substance?
Answer: 3.4 ± 0.1^c g/L

Question: And the Butanol (day 20)?
Answer: 2.7 ± 0.2^c g/L

Question: What about the “Effect on butanol yield and productivity” value (BP110517, continuous cultures (summary of findings)) of the same substance?
Answer: increased butanol yield and productivity

Question: And the “Average Butanol” value (day 0)?
Answer: 0.91 g/L

Question: What about the “Average Glucose” value (day 0) of the same substance?
Answer: 66.1 g/L

Question: What about the “Average Butanol” value (day 1) of the same substance?
Answer: 12.81 g/L

Question: And the “Average Glucose” value (day 1)?
Answer: 28.2 g/L

Question: And the “Average Butanol” value (day 2)?
Answer: 5.54 g/L

Question: What about the “Average Glucose” value (day 2) of the same substance?
Answer: 3.3 g/L

Question: What about the “Average Butanol” value (day 3) of the same substance?
Answer: 5.78 g/L

Question: And the “Average Glucose” value (day 3)?
Answer: 3.1 g/L

Question: What about the “Average Butanol” value (day 4) of the same substance?
Answer: 11.22 g/L

Question: And the “Average Glucose” value (day 4)?
Answer: 2.4 g/L

Question: What about the “Average Butanol” value (day 5) of the same substance?
Answer: 14.19 g/L

Question: And the “Average Glucose” value (day 5)?
Answer: 0.0 g/L

Question: What about the “Average Butanol” value (day 6) of the same substance?
Answer: 12.27 g/L

Question: What about the “Average Glucose” value (day 6) of the same substance?
Answer: 0.0 g/L

Question: And the “Average Butanol” value (day 7)?
Answer: 12.64 g/L

Question: And the “Average Glucose” value (day 7)?
Answer: 0.4 g/L

Question: And the “Average Butanol” value (day 8)?
Answer: 10.95 g/L

Question: What about the “Average Glucose” value (day 8) of the same substance?
Answer: 0.0 g/L

Question: What about the “Average Butanol” value (day 9) of the same substance?
Answer: 9.89 g/L

Question: What about the “Average Glucose” value (day 9) of the same substance?
Answer: 2.3 g/L

Question: What about the “Average Butanol” value (day 10) of the same substance?
Answer: 7.55 g/L

Question: What about the “Average Glucose” value (day 10) of the same substance?
Answer: 13.4 g/L

Question: And the “Average Butanol” value (day 11)?
Answer: 10.55 g/L

Question: And the “Average Glucose” value (day 11)?
Answer: 6.1 g/L

Question: And the “Average Butanol” value (day 12)?
Answer: 8.46 g/L

Question: What about the “Average Glucose” value (day 12) of the same substance?
Answer: 0.0 g/L

Question: What about the “Average Butanol” value (day 13) of the same substance?
Answer: 3.63 g/L

Question: What about the “Average Glucose” value (day 13) of the same substance?
Answer: 2.0 g/L

Question: What about the “Average Butanol” value (day 14) of the same substance?
Answer: 2.73 g/L

Question: What about the “Average Glucose” value (day 14) of the same substance?
Answer: 14.2 g/L

Question: What about the “Average Butanol” value (day 15) of the same substance?
Answer: 2.82 g/L

Question: What about the “Average Glucose” value (day 15) of the same substance?
Answer: 23.8 g/L

Question: And the “Average Butanol” value (day 16)?
Answer: 4.71 g/L

Question: And the “Average Glucose” value (day 16)?
Answer: 29.2 g/L

Question: What about the “Average Butanol” value (day 17) of the same substance?
Answer: 3.32 g/L

Question: And the “Average Glucose” value (day 17)?
Answer: 30.4 g/L

Question: And the “Average Butanol” value (day 18)?
Answer: 2.68 g/L

Question: What about the “Average Glucose” value (day 18) of the same substance?
Answer: 40.1 g/L

Question: And the “Average Butanol” value (day 19)?
Answer: 3.41 g/L

Question: And the “Average Glucose” value (day 19)?
Answer: 33.8 g/L

Question: What about the “Average Butanol” value (day 20) of the same substance?
Answer: 2.69 g/L

Question: What about the “Average Glucose” value (day 20) of the same substance?
Answer: 40.3 g/L
